Measured values taken from patent US10414739B2, “Compounds as inhibitors of the YAP/TAZ-TEAD interaction and their use in the treatment of malignant mesothelioma” (INVENTIVA, priority 2015, dated 2019).
Where a name gives a salt, the structure may show the parent alone.

How the values were obtained:
[1] = target: T1, YAP-TEAD interaction (human YAP2-His6 (50-114) / human TEAD1-GST (209-426)) (Homo sapiens, UniProt P28347); test: YAP-TEAD AlphaLISA assay; assay type: binding; conditions: for Emax: 2 h, maximal % inhibition, read-out: Max Act.; for Emax / IC50: YAP-TEAD AlphaLISA; for IC50: 2 h equilibration at room temperature
T1 construct: GST-TEAD1 (209-426) produced in E. coli; made in house; host or cells: E. coli
Procedure: YAP-TEAD AlphaLISA Assay for IC50 Value Determination.
YAP-TEAD binding and inhibition was assessed by monitoring the engagement of YAP2 peptide (human YAP2-His6 (50-114) produced in E. coli) with TEAD (human TEAD1-GST (GST-TEAD1 (209-426) produced in E. coli) using the AlphaLisa technology (Perkin-Elmer). Specifically, in a 384 well (Axygen) 5 μl of compounds were dispensed in 100% DMSO following a semi log serial dilution, with a top concentration of […] (10 concentrations). A ‘3 partners solution’ was prepared by mixing AlphaScreen Glutathione Donor beads 15 μg/ml (PerkinElmer), Anti-6×His AlphaLisA Acceptor beads 15 μg/ml (PerkinElmer) and Human YAP2 9 nM in 100 mM NaCl, 25 mM Hepes, 0.1% BSA, 0.5% NoNidet®P40 buffer. In the 384 assay plate (Proxiplate, Perkin-Elmer)) 2 μl of compound at each concentration, 6 μl of buffer, 6 μl of hTEAD1-GST 9 nM and 6 μl of ‘3 partner solution’ were mixed. After 2 h equilibration at room temperature in the dark the plates were read on an Envision instrument (Excitation @ 680 nm/Emission @ 570 nm, Perkin Elmer).
Results were expressed as % inhibition=100×((HighControl−Cpd)/(HighControl−LowControl)), were High control is the maximum response obtained with all components and Low control is the basal response obtained with all components without GST-Tead1.
Cpd is the response obtained for test compounds.
IC50 (half maximal inhibitory concentration) was determined by fitting the concentration response curves using a 3-parameter curve fit equation and determining concentration corresponding to 50% inhibition.

[2] = system: SW620 cell line; test: Cell proliferation in YAP-independent cell line (EdU); assay type: cell-based
Procedure: The tumor cell growth inhibitory activity of the YAP-TEAD interaction inhibitors was evaluated in NCI-H2052 mesothelioma cell line harboring a NF2 mutation. This cell line was selected based on its mutational status and the ability of a siRNA directed against YAP, TAZ or TEAD1-4 to inhibit cell proliferation. The nuclear localization of YAP at confluence was also taken into account. Based on these observations we were able to classify several “YAP dependent cells” where YAP is clearly nuclear and in which a cell growth inhibition is observed by using siRNA (NCI-H2052, SKOV-3, ACHN, A549) and the “YAP independent cells” where YAP is preferentially located in the cytoplasm and in which no inhibition of cell growth is observed by using a siRNA (SW620, Met-5a). […] After one day growth in the starvation medium, cells were incubated with compounds. The starting concentration was 30 μM and serial dilutions in DMSO and medium were performed until […] to achieve a final DMSO concentration of 0.5%. The cells were then allowed to grow for 3 days, and then, EdU (Invitrogen, Molecular Probe) was added in each well at a final concentration of 10 μM and the cells were returned to the incubator for additional 24 h. Starvation medium was removed and 100 μl of PFA 4% containing Hoechst dye was adding in each well to fix the cells. Plates were then incubated at room temperature for 15 minutes, washed twice with PBS and the cells were permeabilized by adding 100 μl per well of triton-100 containing 0.3% BSA. After 20 minutes cells were washed with PBS and the EdU detection was performed according to the instructions of the manufacturer. Image acquisition was performed using the ImageXpress Micro and analysed using the MetaXpress software (Molecular Device). Results were expressed as a percent of inhibition (%) of the cell proliferation values obtained with 0.5% DMSO treatment alone. The cellular response was determined by fitting the concentration response curves using a 3 parameter curve fit equation and determining the concentration that inhibited cell growth between 50% and 100%.

[3] = system: YAP-TEAD interaction in co-transfected HEK293 cells; test: Cell-based TEAD-GAL4 transactivation assay (luciferase reporter); conditions: Homo sapiens, HEK293 co-transfected with TEAD1-Gal4, YAP mutant (S127A, S397A) and reporter, 24 h
Procedure: Effect of Compounds on the Cell-Based TEAD-GAL4 Transactivation Assay
(§1) To identify inhibitors of YAP-TEAD interaction, a transient transactivation assays was carried out into HEK293 cell line (HEK293 GripTite™ 293 MSR (Invitrogen R795-07)) using plasmids containing the full length TEAD1 sequences, the full length YAP mutant (S127A, S397A) and a luciferase gene reporter. All expression constructs were performed into pSG5 backbone plasmid in which the SV40 promoter was replaced by the CMV promoter. The TEAD1 construct was prepared by cloning the full length human TEAD1 cDNA in fusion with the Gal4 DNA Binding Domain (AA 1-148) into pSG5_CMV to create the TEAD1(FL)_hum_pSG5Gal4_CMV. The full length YAP mutant (S127A, S397A) was also cloned into pSG5_CMV to create the YAP(FL)_hum_pSG5_mutS127A_S397A_CMV. The reporter plasmid GAL4(5×RE)_TK(−105/+56)_pGL3-Basic contains 5 copies of the GAL4 responsive element (5′-TCGGAGGACAGTACTCC-3′) upstream of the thymidine kinase (TK) promoter (−105/+56) inserted in a pGL3-Basic vector. To evaluate the selectivity of our compounds in blocking the YAP-TEAD interaction, a counter-screening protein-protein interaction transactivation assays was also established. Briefly, two other expression plasmids, the pBD-P53 which express the P53 (AA 72-390) in fusion with Gal4 and the pAD-SV40T which express the SV40 large T antigen (AA 84-708,AgT), were created. […] Twenty-four hours later, the luciferase activity was determined after addition of 100 μl of Steady Glo™ luciferase assay system (Promega E2550) according to the manufacturer's directions. Luciferase activity in cell extracts is measured by reading luminescence using the Envision device.
The cellular response was determined by fitting the concentration response curves using a 3-parameter curve fit equation and determining the concentration that inhibited the luciferase activity by 50%.

[4] = system: P53 / SV40 large T antigen (AgT) interaction in HEK293 cells; test: Counter-screening protein-protein interaction transactivation assay (P53+AgT); assay type: cell-based; conditions: HEK293, same conditions as TEAD-GAL4 assay
Procedure: as §1, with “created. HEK293 cells were seeded at 5×10^4 cells/well in 96 well plates (assay plates) in DMEM medium containing 4.5 g/L D-glucose, 10% high inactivated (HI) fetal bovine serum 1% Glutamax, 1% non-essential amino acid and 1% sodium pyruvate and 0.5% penicillin/streptomycin 37° C. in a humidified atmosphere of 8% CO2.” for “created.”

[5] = system: NCI-H2052 mesothelioma cell line; test: Inhibition of malignant mesothelioma tumor cell growth (EdU proliferation); assay type: cell-based; conditions: NCI-H2052 (NF2 mutated), 1% serum
Procedure: Inhibition of Malignant Mesothelioma Tumor Cell Growth
The tumor cell growth inhibitory activity of the YAP-TEAD interaction inhibitors was evaluated in NCI-H2052 mesothelioma cell line harboring a NF2 mutation. This cell line was selected based on its mutational status and the ability of a siRNA directed against YAP, TAZ or TEAD1-4 to inhibit cell proliferation. The nuclear localization of YAP at confluence was also taken into account. Based on these observations we were able to classify several “YAP dependent cells” where YAP is clearly nuclear and in which a cell growth inhibition is observed by using siRNA (NCI-H2052, SKOV-3, ACHN, A549) and the “YAP independent cells” where YAP is preferentially located in the cytoplasm and in which no inhibition of cell growth is observed by using a siRNA (SW620, Met-5a). […] After one day growth in the starvation medium, cells were incubated with compounds. The starting concentration was 30 μM and serial dilutions in DMSO and medium were performed until […] to achieve a final DMSO concentration of 0.5%. The cells were then allowed to grow for 3 days, and then, EdU (Invitrogen, Molecular Probe) was added in each well at a final concentration of 10 μM and the cells were returned to the incubator for additional 24 h. Starvation medium was removed and 100 μl of PFA 4% containing Hoechst dye was adding in each well to fix the cells. Plates were then incubated at room temperature for 15 minutes, washed twice with PBS and the cells were permeabilized by adding 100 μl per well of triton-100 containing 0.3% BSA. […] Image acquisition was performed using the ImageXpress Micro and analysed using the MetaXpress software (Molecular Device). Results were expressed as a percent of inhibition (%) of the cell proliferation values obtained with 0.5% DMSO treatment alone. The cellular response was determined by fitting the concentration response curves using a 3 parameter curve fit equation and determining the concentration that inhibited cell growth between 50% and 100%.

T1 sequence (P28347 209-426): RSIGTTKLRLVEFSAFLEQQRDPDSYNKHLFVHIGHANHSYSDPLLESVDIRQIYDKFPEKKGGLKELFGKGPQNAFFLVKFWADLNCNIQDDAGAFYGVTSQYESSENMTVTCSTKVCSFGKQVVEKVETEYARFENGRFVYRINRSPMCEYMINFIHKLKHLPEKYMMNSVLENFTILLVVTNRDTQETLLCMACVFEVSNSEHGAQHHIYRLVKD

SMILES | Emax [1] [%] | IC50 [1] [nM] | effect on cell proliferation [2] | inhibition at 30 µM [3] [%] | inhibitory effect in counter screening assay (P53+AgT) [4] | inhibition of cell proliferation [5] | melting point [°C] | inhibition at 0.886 µM ([1]; at 0.886 μM (so in the source)) [%]
COc1cc(/C=N/N(CCO)C2=NS(=O)(=O)c3ccccc32)ccc1O [Example 2, 4-[(E)-[(1,1-dioxo-1,2-benzothiazol-3-yl)-(2-hydroxyethyl)-hydrazono]methyl]-2-methoxy-phenol] | 93 | 949 | without showing any effect | 50 to 75 | no inhibitory effect was observed | inhibited | – | –
COc1cc(/C=N/N(C)C2=NS(=O)(=O)c3c(C)cc(F)cc32)ccc1O [Example 20, 4-[(E)-[(5-fluoro-7-methyl-1,1-dioxo-1,2-benzothiazol-3-yl)-methyl-hydrazono]methyl]-2-methoxy-phenol] | 95 | 3410 | – | – | – | – | > 260 | –
COCCN(/N=C/c1ccc(O)c(OC)c1)C1=NS(=O)(=O)c2ccccc21 [Example 7, 4-[(E)-[(1,1-dioxo-1,2-benzothiazol-3-yl)-(2-methoxyethyl)hydrazono]-methyl]-2-methoxy-phenol] | 94 | 4580 | without showing any effect | 50 to 75 | no inhibitory effect was observed | inhibited | – | –
COc1cc(/C=N/N(C)C2=NS(=O)(=O)c3cc(C(=O)O)ccc32)ccc1O [Example 34, 3-[[(E)-(4-hydroxy-3-methoxy-phenyl)methyleneamino]-methyl-amino]-1,1-dioxo-1,2-benzothiazole-6-carboxylic acid] | 97 | 4570 | – | – | – | – | > 260 | –
COc1cc(/C=N/N(C)C2=NS(=O)(=O)c3ccccc32)ccc1O [Example 1, 4-[(E)-[(1,1-dioxo-1,2-benzothiazol-3-yl)-methyl-hydrazono]methyl]-2-methoxy-phenol] | 92 | 886 | without showing any effect | 50 to 75 | no inhibitory effect was observed | inhibited | 218 | 92
COc1cc(/C=N/N(C)C2=NS(=O)(=O)c3ccc(C)cc32)ccc1O [Example 25, 2-methoxy-4-[(E)-[methyl-(5-methyl-1,1-dioxo-1,2-benzothiazol-3-yl)hydrazono]methyl]phenol] | 90 | 568 | – | – | – | – | – | –
COc1cc(/C=N/N(CCCO)C2=NS(=O)(=O)c3ccccc32)ccc1O [Example 5, 4-[(E)-[(1,1-dioxo-1,2-benzothiazol-3-yl)-(3-hydroxypropyl)hydrazono]-methyl]-2-methoxy-phenol] | 88 | 5500 | – | – | – | – | – | –
COc1cc(/C=N/N(C)C2=NS(=O)(=O)c3cc(F)ccc32)ccc1O [Example 41, 4-[(E)-[(6-fluoro-1,1-dioxo-1,2-benzothiazol-3-yl)-methyl-hydrazono]-methyl]-2-methoxy-phenol] | 85 | 5740 | – | – | – | – | – | –
COCCN(/N=C/c1ccc(O)c(OC)c1)C1=NS(=O)(=O)c2c(OC)cc(OC)cc21 [Example 19, 4-[(E)-[(5,7-dimethoxy-1,1-dioxo-1,2-benzothiazol-3-yl)-(2-methoxyethyl) hydrazono]methyl]-2-methoxy-phenol] | 92 | 626 | – | – | – | – | – | –
COc1cc(/C=N/N(CCN2CCOCC2)C2=NS(=O)(=O)c3ccccc32)ccc1O [Example 4, 4-[(E)-[(1,1-dioxo-1,2-benzothiazol-3-yl)-(2-morpholinoethyl)hydrazono]methyl]-2-methoxy-phenol hydrochloride] | 97 | 615 | – | – | – | – | – | –
COCCN(/N=C/c1ccc(O)c(OC)c1)C1=NS(=O)(=O)c2c(OC)cc(C)cc21 [Example 30, 2-methoxy-4-[(E)-[2-methoxyethyl-(7-methoxy-5-methyl-1,1-dioxo-1,2-benzothiazol-3-yl)hydrazono]methyl]phenol] | 90 | 878 | – | – | – | – | – | –
COc1cc(/C=N/N(CCO)C2=NS(=O)(=O)c3c(OC)cccc32)ccc1O [Example 22, 4-[(E)-[2-hydroxyethyl-(7-methoxy-1,1-dioxo-1,2-benzothiazol-3-yl) hydrazono]methyl]-2-methoxy-phenol] | 97 | 83 | – | – | – | – | – | –
COc1cc(/C=N/N(CCC(=O)O)C2=NS(=O)(=O)c3ccccc32)ccc1O [Example 8, 3-[(1,1-dioxo-1,2-benzothiazol-3-yl)-[(E)-(4-hydroxy-3-methoxy-phenyl)methyleneamino]amino]propanoic acid] | 94 | 1100 | – | – | – | – | – | –
COc1cc(OC)c2c(c1)C(N(CCN1CCOCC1)/N=C/c1ccc(O)c(OC)c1)=NS2(=O)=O [Example 18, 4-[(E)-[(5,7-dimethoxy-1,1-dioxo-1,2-benzothiazol-3-yl)-(2-morpholino-ethyl)hydrazono]methyl]-2-methoxy-phenol hydrochloride] | 97 | 84 | – | – | – | – | – | –
